Reference: PubChem BioAssay (NCI)
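Test compounds were applied to cells in 96-well plates for 48 hours at 5 doses. Abbreviation: GI50, concentration required for 50% inhibition of growth. At the TGI there is no net growth.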

Legend:
Test in all cases: inhibition of tumour cell growth, NCI panel, 48 h
SF-295 CNS = test system: SF-295 CNS
DU-145 prostate = test system: DU-145 prostate
PC-3 prostate = test system: PC-3 prostate
U251 CNS = test system: U251 CNS
HCC-2998 colon = test system: HCC-2998 colon
HL-60(TB) leukemia = test system: HL-60(TB) leukemia
MDA-MB-231 breast = test system: MDA-MB-231 breast
SK-OV-3 ovarian = test system: SK-OV-3 ovarian
M14 melanoma = test system: M14 melanoma
HCT-116 colon = test system: HCT-116 colon
A549 NSCLC = test system: A549 NSCLC
SK-MEL-5 melanoma = test system: SK-MEL-5 melanoma
MALME-3M melanoma = test system: MALME-3M melanoma
NCI-H460 lung = test system: NCI-H460 lung
HS 578T breast = test system: HS 578T breast
MCF7 breast = test system: MCF7 breast
NCI-H23 lung = test system: NCI-H23 lung
SR leukemia = test system: SR leukemia
NCI-H522 lung = test system: NCI-H522 lung
CCRF-CEM leukemia = test system: CCRF-CEM leukemia
SNB-19 CNS = test system: SNB-19 CNS
UACC-62 melanoma = test system: UACC-62 melanoma
NCI-H226 lung = test system: NCI-H226 lung
SK-MEL-28 melanoma = test system: SK-MEL-28 melanoma
TK-10 renal = test system: TK-10 renal
A498 renal = test system: A498 renal
SW-620 colon = test system: SW-620 colon
SNB-75 CNS = test system: SNB-75 CNS
OVCAR-8 ovarian = test system: OVCAR-8 ovarian
HCT-15 colon = test system: HCT-15 colon
NCI/ADR-RES ovarian = test system: NCI/ADR-RES ovarian
SN12C renal = test system: SN12C renal
T-47D breast = test system: T-47D breast
OVCAR-4 ovarian = test system: OVCAR-4 ovarian
BT-549 breast = test system: BT-549 breast
KM12 colon = test system: KM12 colon
RXF 393 renal = test system: RXF 393 renal
786-0 renal = test system: 786-0 renal
HOP-62 NSCLC = test system: HOP-62 NSCLC
OVCAR-5 ovarian = test system: OVCAR-5 ovarian
K-562 leukemia = test system: K-562 leukemia
ACHN renal = test system: ACHN renal
SK-MEL-2 melanoma = test system: SK-MEL-2 melanoma
HOP-92 NSCLC = test system: HOP-92 NSCLC
OVCAR-3 ovarian = test system: OVCAR-3 ovarian
IGROV1 ovarian = test system: IGROV1 ovarian
SF-539 CNS = test system: SF-539 CNS
UACC-257 melanoma = test system: UACC-257 melanoma
LOX IMVI melanoma = test system: LOX IMVI melanoma
HT29 colon = test system: HT29 colon
MOLT-4 leukemia = test system: MOLT-4 leukemia
UO-31 renal = test system: UO-31 renal
EKVX NSCLC = test system: EKVX NSCLC
RPMI-8226 leukemia = test system: RPMI-8226 leukemia
CAKI-1 renal = test system: CAKI-1 renal
SF-268 CNS = test system: SF-268 CNS

## CC1(C)CC[C@]2(C(=O)N3CCOCC3)CC[C@]3(C)C(=CC[C@@H]4[C@@]5(C)C/C(=C/c6ccncc6)C(=O)C(C)(C)[C@@H]5CC[C@]43C)[C@@H]2C1
SF-295 CNS
  GI50: 2.03 µM
  TGI: 34.8 µM
DU-145 prostate
  GI50: 2.77 µM
  TGI: 36.5 µM
PC-3 prostate
  GI50: 0.375 µM
  TGI: 46.1 µM
U251 CNS
  GI50: 1.89 µM
  TGI: 10.3 µM
HCC-2998 colon
  GI50: 1.66 µM
  TGI: 7.82 µM
HL-60(TB) leukemia
  GI50: 1.16 µM
  TGI: 3.96 µM
MDA-MB-231 breast
  GI50: 3.06 µM
  TGI: 41.1 µM
SK-OV-3 ovarian
  GI50: 3.58 µM
  TGI: > 100 µM
M14 melanoma
  GI50: 1.41 µM
  TGI: 5.23 µM
HCT-116 colon
  GI50: 0.319 µM
  TGI: 2 µM
A549 NSCLC
  GI50: 1.22 µM
  TGI: > 100 µM
SK-MEL-5 melanoma
  GI50: 1.48 µM
  TGI: 3.01 µM
MALME-3M melanoma
  GI50: 1.57 µM
  TGI: 4.59 µM
NCI-H460 lung
  GI50: 1.32 µM
  TGI: 4.17 µM
HS 578T breast
  GI50: 2.56 µM
  TGI: > 100 µM
MCF7 breast
  GI50: 0.509 µM
  TGI: 15.3 µM
NCI-H23 lung
  GI50: 2.41 µM
  TGI: > 100 µM
SR leukemia
  GI50: 0.365 µM
  TGI: > 100 µM
NCI-H522 lung
  GI50: 1.3 µM
  TGI: 6.72 µM
CCRF-CEM leukemia
  GI50: 0.871 µM
  TGI: > 100 µM
SNB-19 CNS
  GI50: 6.93 µM
  TGI: 27.7 µM
UACC-62 melanoma
  GI50: 1.36 µM
  TGI: 40.9 µM
NCI-H226 lung
  GI50: 2.09 µM
  TGI: 9.22 µM
SK-MEL-28 melanoma
  GI50: 1.84 µM
  TGI: 5.41 µM
TK-10 renal
  GI50: 6.46 µM
  TGI: > 100 µM
A498 renal
  GI50: 1.83 µM
  TGI: 4.96 µM
SW-620 colon
  GI50: 2.29 µM
  TGI: > 100 µM
SNB-75 CNS
  GI50: 3.21 µM
  TGI: > 100 µM
OVCAR-8 ovarian
  GI50: 3.52 µM
  TGI: > 100 µM
HCT-15 colon
  GI50: 0.939 µM
  TGI: 11 µM
NCI/ADR-RES ovarian
  GI50: 2.5 µM
  TGI: 46.4 µM
SN12C renal
  GI50: 2.37 µM
  TGI: 20.6 µM
T-47D breast
  GI50: 0.781 µM
  TGI: > 100 µM
OVCAR-4 ovarian
  GI50: 2.34 µM
  TGI: > 100 µM
BT-549 breast
  GI50: 1.39 µM
  TGI: 10 µM
KM12 colon
  GI50: 2.7 µM
  TGI: > 100 µM
RXF 393 renal
  GI50: 1.22 µM
  TGI: 3.03 µM
786-0 renal
  GI50: 1.66 µM
  TGI: 12.4 µM
HOP-62 NSCLC
  GI50: 1.76 µM
  TGI: 6.73 µM
OVCAR-5 ovarian
  GI50: 2.27 µM
  TGI: 9.45 µM
K-562 leukemia
  GI50: 0.637 µM
  TGI: > 100 µM
ACHN renal
  GI50: 2.2 µM
  TGI: 21.7 µM
SK-MEL-2 melanoma
  GI50: 2.33 µM
  TGI: 7.27 µM
HOP-92 NSCLC
  GI50: 0.0347 µM
  TGI: 11.6 µM
OVCAR-3 ovarian
  GI50: 2.06 µM
  TGI: > 100 µM
IGROV1 ovarian
  GI50: 3.09 µM
  TGI: > 100 µM
SF-539 CNS
  GI50: 1.73 µM
  TGI: 3.7 µM
UACC-257 melanoma
  GI50: 3.68 µM
  TGI: > 100 µM
LOX IMVI melanoma
  GI50: 1.24 µM
  TGI: 2.72 µM
HT29 colon
  GI50: 0.912 µM
  TGI: 54.5 µM
MOLT-4 leukemia
  GI50: 0.787 µM
  TGI: > 100 µM
UO-31 renal
  GI50: 0.893 µM
  TGI: 14.2 µM
EKVX NSCLC
  GI50: 2.87 µM
  TGI: > 100 µM
RPMI-8226 leukemia
  GI50: 0.476 µM
  TGI: 3.36 µM
CAKI-1 renal
  GI50: 1.07 µM
  TGI: > 100 µM
SF-268 CNS
  GI50: 6.33 µM
  TGI: > 100 µM
